{
  "source": "patent US11214594B2",
  "about": "“Antimicrobial peptide having synergistic antibacterial effect with antibiotics on multidrug resistant bacteria, and use thereof” (priority 2016, dated 2022)",
  "key": {"MDREC 1229 [1]": {"tested_on": "MDREC 1229", "experiment": "microbe, parasite or virus in culture", "format": "cell-based, Escherichia coli", "how_it_was_run": "(§1)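 Each strain is brought to 2×10^6 CFU in nutrient-sufficient Mueller-Hinton medium and dispensed into wells. Peptide solutions, stepwise diluted 2:1 in the same medium, are then added. The minimal concentration preventing growth gives the MIC.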"}, "E. coli [2]": {"tested_on": "E. coli", "experiment": "microbe, parasite or virus in culture", "format": "cell-based, Escherichia coli", "settings": "16 h", "how_it_was_run": "as §1"}, "MRSA 3114": {"tested_on": "MRSA 3114", "format": "cell-based, Staphylococcus aureus", "settings": "3114", "how_it_was_run": "as §1"}, "MRSA 3126": {"tested_on": "MRSA 3126", "format": "cell-based, Staphylococcus aureus", "settings": "3126", "how_it_was_run": "as §1"}, "MDREC 1229 [3]": {"tested_on": "MDREC 1229", "format": "cell-based, Escherichia coli", "how_it_was_run": "(§2)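 Strains in MH medium at 2×10^6 CFU/ml were mixed with peptide diluted stepwise (2:1) from its MIC, then antibiotic dilutions in MH medium were added to give the antibiotic MIC. The reversed set-up, peptide titrated against fixed antibiotic, gave the peptide MIC.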"}, "E. coli [4]": {"tested_on": "E. coli", "format": "cell-based, Escherichia coli", "settings": "E. coli", "how_it_was_run": "as §2"}, "MDRPA 2003": {"tested_on": "MDRPA 2003", "format": "cell-based, Pseudomonas aeruginosa", "how_it_was_run": "as §1"}, "MDRPA 2002": {"tested_on": "MDRPA 2002", "format": "cell-based, Pseudomonas aeruginosa", "how_it_was_run": "as §1"}, "E. coli [5]": {"tested_on": "E. coli", "experiment": "MIC of antibiotic during combined treatment with antimicrobial peptide", "format": "cell-based, Escherichia coli", "settings": "for Antibiotic MIC, Erythromycin / Antibiotic MIC, Linezolid / Antibiotic MIC, Vancomycin: E. coli", "how_it_was_run": "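Read-out is the MIC of each combined solution, obtained from MH-medium dilutions of antibiotic added well by well, with a reversed-condition run as well.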"}, "MDRST 8007": {"tested_on": "MDRST 8007", "experiment": "Minimal inhibitory concentration (MIC), single agent", "format": "cell-based, Salmonella typhimurium", "settings": "agent alone", "how_it_was_run": "as §1"}, "MDRST 8009": {"tested_on": "MDRST 8009", "format": "cell-based, Salmonella typhimurium", "settings": "agent alone", "how_it_was_run": "as §1"}, "S. epidermidis": {"tested_on": "S. epidermidis", "experiment": "microbe, parasite or virus in culture", "format": "cell-based, Staphylococcus epidermidis", "how_it_was_run": "as §1"}, "P. aeruginosa": {"tested_on": "P. aeruginosa", "experiment": "microbe, parasite or virus in culture", "format": "cell-based, Pseudomonas aeruginosa", "how_it_was_run": "as §1"}},
  "note": "Like-named read-outs stand apart in the source and are kept apart here. Where a SMILES comes first, the peptide text is derived from it. [ ]: non-standard residue; d: D form.",
  "data": [
    {"smiles": "CC[C@H](C)[C@H](NC(=O)[C@H](CCCCN)NC(=O)[C@H](Cc1c[nH]c2ccccc12)NC(=O)[C@@H](N)CCCNC(=N)N)C(=O)N[C@@H](Cc1ccccc1)C(=O)N[C@@H](CCCCN)C(=O)N[C@@H](CCCCN)C(=O)N[C@H](C(=O)N[C@H](CCCCN)C(=O)N[C@@H](CCCCN)C(=O)N[C@@H](CC(C)C)C(=O)N[C@@H](CC(C)C)C(=O)N[C@@H](Cc1c[nH]cn1)C(=O)N[C@@H](CO)C(=O)N[C@@H](Cc1ccccc1)C(=O)N[C@@H](CCCCN)C(=O)N[C@@H](CCCCN)C(=O)N[C@@H](Cc1ccccc1)C(N)=O)[C@@H](C)CC", "note": "[PapMA-15, RWK IFK KIk KLL HSF KKF-NH2] (H-RWKIFKKI[dK]KLLHSFKKF-NH2; N-terminus assumed)", "values": [
      {"measurement": "Minimal inhibitory concentration MIC", "setting": "MDREC 1229 [1]", "value": 32, "unit": "µg/mL"},
      {"measurement": "Peptide MIC, peptide alone", "setting": "MDREC 1229 [1]", "value": 32, "unit": "µg/mL"},
      {"measurement": "Minimal inhibitory concentration MIC", "setting": "E. coli [2]", "value": 32, "unit": "µg/mL"},
      {"measurement": "Minimal inhibitory concentration MIC", "setting": "MRSA 3114", "value": ">128", "unit": "µg/mL"},
      {"measurement": "Minimal inhibitory concentration MIC", "setting": "MRSA 3126", "value": ">128", "unit": "µg/mL"},
      {"measurement": "Peptide MIC during treatment with antibiotic", "setting": "MDREC 1229 [3]; erythromycin 32 μg/ml (Conc./MIC 1/8)", "value": 2, "unit": "µg/mL"},
      {"measurement": "Peptide MIC during treatment with antibiotic", "setting": "MDREC 1229 [3]; erythromycin 64 μg/ml (Conc./MIC 1/4)", "value": 2, "unit": "µg/mL"},
      {"measurement": "Peptide MIC during treatment with antibiotic", "setting": "MDREC 1229 [3]; erythromycin […] (Conc./MIC 1)", "value": 0, "unit": "µg/mL"},
      {"measurement": "Peptide MIC during treatment with antibiotic", "setting": "MDREC 1229 [3]; erythromycin […] (Conc./MIC 1/2)", "value": 2, "unit": "µg/mL"},
      {"measurement": "Peptide MIC during treatment with antibiotic", "setting": "MDREC 1229 [3]; linezolid 64 μg/ml (Conc./MIC 1/8)", "value": 4, "unit": "µg/mL"},
      {"measurement": "Peptide MIC during treatment with antibiotic", "setting": "MDREC 1229 [3]; linezolid 512 μg/ml (Conc./MIC 1)", "value": 0, "unit": "µg/mL"},
      {"measurement": "Peptide MIC during treatment with antibiotic", "setting": "MDREC 1229 [3]; linezolid […] (Conc./MIC 1/2)", "value": 1, "unit": "µg/mL"},
      {"measurement": "Peptide MIC during treatment with antibiotic", "setting": "MDREC 1229 [3]; linezolid […] (Conc./MIC 1/4)", "value": 2, "unit": "µg/mL"},
      {"measurement": "Peptide MIC during treatment with antibiotic", "setting": "MDREC 1229 [3]; vancomycin 512 μg/ml (Conc./MIC 1/2)", "value": 2, "unit": "µg/mL"},
      {"measurement": "Peptide MIC during treatment with antibiotic", "setting": "MDREC 1229 [3]; vancomycin 1024 μg/ml (Conc./MIC 1)", "value": 1, "unit": "µg/mL"},
      {"measurement": "Peptide MIC during treatment with antibiotic", "setting": "MDREC 1229 [3]; vancomycin […] (Conc./MIC 1/4)", "value": 4, "unit": "µg/mL"},
      {"measurement": "Peptide MIC during treatment with antibiotic", "setting": "MDREC 1229 [3]; vancomycin […] (Conc./MIC 1/8)", "value": 8, "unit": "µg/mL"},
      {"measurement": "Peptide MIC", "setting": "E. coli [4]; with Erythromycin […] (Conc./MIC 1)", "value": 0, "unit": "µg/mL"},
      {"measurement": "Peptide MIC", "setting": "E. coli [4]; with Linezolid […] (Conc./MIC 1)", "value": 0, "unit": "µg/mL"},
      {"measurement": "Peptide MIC", "setting": "E. coli [4]; with Vancomycin 1024 μg/ml (Conc./MIC 1)", "value": 0, "unit": "µg/mL"},
      {"measurement": "Minimal inhibitory concentration MIC", "setting": "MDRPA 2003", "value": 32, "unit": "µg/mL"},
      {"measurement": "Minimal inhibitory concentration MIC", "setting": "MDRPA 2002", "value": 32, "unit": "µg/mL"},
      {"measurement": "Synergistic effect of antibacterial activity with existing antibiotics compared with PapMA-1", "setting": "E. coli [5]; E. coli and MDREC1229", "value": "level similar to that of the PapMA-1 peptide"},
      {"measurement": "Antibiotic MIC, Erythromycin", "setting": "E. coli [5]; erythromycin combined with peptide at 1 μg/ml", "value": 64, "unit": "µg/mL"},
      {"measurement": "Antibiotic MIC, Erythromycin", "setting": "E. coli [5]; erythromycin combined with peptide at 2 μg/ml", "value": 32, "unit": "µg/mL"},
      {"measurement": "Antibiotic MIC, Erythromycin", "setting": "E. coli [5]; erythromycin combined with peptide at 4 μg/ml", "value": 16, "unit": "µg/mL"},
      {"measurement": "Antibiotic MIC, Erythromycin", "setting": "E. coli [5]; erythromycin combined with peptide at 6 μg/ml", "value": 2, "unit": "µg/mL"},
      {"measurement": "Antibiotic MIC, Erythromycin", "setting": "E. coli [5]; erythromycin combined with peptide at 8 μg/ml", "value": 1, "unit": "µg/mL"},
      {"measurement": "Antibiotic MIC, Erythromycin", "setting": "E. coli [5]; erythromycin combined with peptide at 16 μg/ml", "value": 0.25, "unit": "µg/mL"},
      {"measurement": "Antibiotic MIC, Erythromycin", "setting": "E. coli [5]; erythromycin combined with peptide at 32 μg/ml", "value": 0, "unit": "µg/mL"},
      {"measurement": "Antibiotic MIC, Erythromycin", "setting": "E. coli [5]; erythromycin combined with peptide at 64 μg/ml", "value": 0, "unit": "µg/mL"},
      {"measurement": "Antibiotic MIC, Linezolid", "setting": "E. coli [5]; linezolid combined with peptide at 1 μg/ml", "value": ">128", "unit": "µg/mL"},
      {"measurement": "Antibiotic MIC, Linezolid", "setting": "E. coli [5]; linezolid combined with peptide at 2 μg/ml", "value": 128, "unit": "µg/mL"},
      {"measurement": "Antibiotic MIC, Linezolid", "setting": "E. coli [5]; linezolid combined with peptide at 4 μg/ml", "value": 32, "unit": "µg/mL"},
      {"measurement": "Antibiotic MIC, Linezolid", "setting": "E. coli [5]; linezolid combined with peptide at 6 μg/ml", "value": 16, "unit": "µg/mL"},
      {"measurement": "Antibiotic MIC, Linezolid", "setting": "E. coli [5]; linezolid combined with peptide at 8 μg/ml", "value": 16, "unit": "µg/mL"},
      {"measurement": "Antibiotic MIC, Linezolid", "setting": "E. coli [5]; linezolid combined with peptide at 16 μg/ml", "value": 8, "unit": "µg/mL"},
      {"measurement": "Antibiotic MIC, Linezolid", "setting": "E. coli [5]; linezolid combined with peptide at 32 μg/ml", "value": 0, "unit": "µg/mL"},
      {"measurement": "Antibiotic MIC, Linezolid", "setting": "E. coli [5]; linezolid combined with peptide at 64 μg/ml", "value": 0, "unit": "µg/mL"},
      {"measurement": "Antibiotic MIC, Vancomycin", "setting": "E. coli [5]; vancomycin combined with peptide at 1 μg/ml", "value": ">128", "unit": "µg/mL"},
      {"measurement": "Antibiotic MIC, Vancomycin", "setting": "E. coli [5]; vancomycin combined with peptide at 2 μg/ml", "value": ">128", "unit": "µg/mL"},
      {"measurement": "Antibiotic MIC, Vancomycin", "setting": "E. coli [5]; vancomycin combined with peptide at 4 μg/ml", "value": ">128", "unit": "µg/mL"},
      {"measurement": "Antibiotic MIC, Vancomycin", "setting": "E. coli [5]; vancomycin combined with peptide at 6 μg/ml", "value": 64, "unit": "µg/mL"},
      {"measurement": "Antibiotic MIC, Vancomycin", "setting": "E. coli [5]; vancomycin combined with peptide at 8 μg/ml", "value": 32, "unit": "µg/mL"},
      {"measurement": "Antibiotic MIC, Vancomycin", "setting": "E. coli [5]; vancomycin combined with peptide at 16 μg/ml", "value": 16, "unit": "µg/mL"},
      {"measurement": "Antibiotic MIC, Vancomycin", "setting": "E. coli [5]; vancomycin combined with peptide at 32 μg/ml", "value": 0, "unit": "µg/mL"},
      {"measurement": "Antibiotic MIC, Vancomycin", "setting": "E. coli [5]; vancomycin combined with peptide at 64 μg/ml", "value": 0, "unit": "µg/mL"},
      {"measurement": "Minimal inhibitory concentration MIC", "setting": "MDRST 8007", "value": 64, "unit": "µg/mL"},
      {"measurement": "Minimal inhibitory concentration MIC", "setting": "MDRST 8009", "value": 64, "unit": "µg/mL"},
      {"measurement": "Minimal inhibitory concentration MIC", "setting": "S. epidermidis", "value": ">128", "unit": "µg/mL"},
      {"measurement": "Minimal inhibitory concentration MIC", "setting": "P. aeruginosa", "value": 32, "unit": "µg/mL"}
    ]}
  ]
}
